Measurements published in US6995157B2, “Substituted 4,5-dihydro-1,2,4-triazin-3-ones, 1,2,4-triazin-3-ones, and their use as fungicides and insecticides” (priority 2000, dated 2006).

Experiments:
Sphaerotheca fuliginea = conditions: in vivo
Pyricularia oryzae = format: in vivo; conditions: protectant, 300 g/ha, greenhouse, inoculated 1 day after spraying, rated six days after inoculation; 100 is total disease control, 0 is no disease control

Row | Structure (SMILES) | CPM percent control (Sphaerotheca fuliginea) | RB percent control (Pyricularia oryzae)
1 | CS(=O)(=O)N1CC(c2ccc(Cl)cc2)=NN(c2ccccc2)C1=O [Compound 16] | 0% | 50%
2 | CCCCCN1N=C(c2ccc(Cl)cc2)C(OC)NC1=O (centres unmarked) [Compound 1, 2-pentyl-5-methoxy-6-(4-chlorophenyl)-4,5-dihydro-1,2,4-triazin-3-one] | 0% | 85%
3 | Cn1nc(-c2ccc(Cl)cc2)cnc1=O [Compound 11] | 0% | 80%
4 | CCC#CCN1CC(c2ccc(Cl)cc2)=NN(C)C1=O [Compound 32] | 75% | 75%
5 | CN1N=C(c2ccc(Cl)cc2)CNC1=O [Compound 33] | 0% | 80%
6 | CCCCCCCCCCN1N=C(c2ccc(Cl)cc2)C(OC)NC1=O (racemic) [Compound 17] | 0% | 80%
7 | CC(C)(C)n1nc(-c2ccc(Cl)cc2)cnc1=O [Compound 13] | 0% | 85%
8 | CCCCN1N=C(c2ccc(Cl)cc2)CN(S(C)(=O)=O)C1=O [Compound 5, 2-n-butyl-4-methanesulfonyl-6-(4-chlorophenyl)-4,5-dihydro-1,2,4-triazin-3-one] | 90% | 0%
9 | CCCCCn1nc(-c2ccc(Cl)cc2)cnc1=O [Compound 2, 2-pentyl-6-(4-chlorophenyl)-1,2,4-triazin-3-one] | 50% | 85%
10 | CN1CC(c2ccccc2Cl)=NN(Cc2ccc(Cl)cc2)C1=O [Compound 29] | – | 50%
11 | O=C1NCC(c2ccc(Cl)cc2)=NN1CC(F)(F)F [Compound 19] | 0% | 75%
12 | COC1NC(=O)N(c2ccccc2)N=C1c1ccc(Cl)cc1 (racemic) [Compound 18] | 80% | 85%
13 | COC1NC(=O)N(C)N=C1c1ccc(Cl)cc1 (racemic) [Compound 12] | 0% | 80%
14 | COC1NC(=O)N(C(C)(C)C)N=C1c1ccc(Cl)cc1 (racemic) [Compound 14] | 50% | 90%
15 | O=C1NCC(c2ccc(Cl)cc2)=NN1c1ccccc1 [Compound 15] | 0% | 75%
16 | CN1CC(c2ccc(Cl)cc2)=NN(C#N)C1=O [Compound 27] | 0% | 50%
17 | C#CCN1N=C(c2ccc(Cl)cc2)CN(CCC)C1=O [Compound 28] | 0% | 50%
18 | CCCCN1N=C(c2ccc(Cl)cc2)C(OC)NC1=O (centres unmarked) [Compound 3, 2-n-butyl-5-methoxy-6-(4-chlorophenyl)-4,5-dihydro-1,2,4-triazin-3-one] | 0% | 85%
19 | CCC#CCn1nc(-c2ccc(Cl)cc2)cnc1=O [Compound 31] | 50% | 85%
20 | CCCCCN1N=C(c2ccccc2)C(OC)NC1=O (racemic) [Compound 9] | 0% | 85%
21 | CCCCCn1nc(-c2ccccc2)cnc1=O [Compound 10] | 0% | 80%
22 | CN1CC(c2ccc(Cl)cc2)=NN(Cc2ccc(Cl)cc2)C1=O [Compound 30] | – | 75%
23 | COC1NC(=O)N(CC(F)(F)F)N=C1c1ccc(Cl)cc1 (racemic) [Compound 20] | 0% | 80%
24 | CCCCCn1nc(-c2ccc(OC)cc2)cnc1=O [Compound 34] | 0% | 85%
25 | CCCCn1nc(-c2ccc(Cl)cc2)cnc1=O [Compound 4, 2-n-butyl-6-(4-chlorophenyl)-1,2,4-triazin-3-one] | 0% | 85%
26 | CCCCCn1nc(-c2ccc(OC)cc2)c(-c2ccc(OC)cc2)nc1=O [Compound 8, 2-n-pentyl-5,6-bis-(4-methoxyphenyl)-1,2,4-triazin-3-one] | 0% | 50%
